For this experiment, the system named is αVβ8 headpiece. The experiment is described as follows: Hydrogen-deuterium exchange MS, αVβ8 headpiece. To be noted: 2.20 µM αVβ8, 6.67 µM TGF-β1 ligand peptide; from KD. Here is the method:
Two microliters of αVβ6 and αVβ8 stock solutions (23 and 33 µM, respectively), either alone or mixed with 100 µM TGF-β1 ligand peptide, were diluted 15-fold (to 1.53 and 2.20 µM, αVβ6 and αVβ8, respectively, and 6.67 µM TGF-β1 ligand peptide) with labeling buffer (Supplementary Table 1) at 21 °C to initiate deuterium exchange. […] At time points from 10 s to 240 m, an aliquot was removed and an equal volume of quench buffer (Supplementary Table 1) was added to adjust the pH to 2.5. Each sample (46 pmol αVβ6 or 66 pmol αVβ8) was immediately subjected to liquid chromatography-mass spectrometry analysis as described in the next paragraphs and in our PRIDE submission (PXD014348). For binding experiments, protein and ligand were allowed to equilibrate for 20 min at 21 °C before deuterium labeling.
Deuterated and control samples were digested in solution with pepsin (10 mg/ml, Sigma P6887; Lot#SLBL1721V) for 5 min on ice, and then injected into an M-class Acquity UPLC with HDX technology (Waters)[32]. […]
Peptides were identified using PLGS 3.0.1 (Waters, 720001408EN) using six replicates of undeuterated αVβ6 and six replicates of undeuterated αVβ8. […] The relative amount of deuterium in each peptide was determined by subtracting the centroid mass of the undeuterated form of each peptide from the deuteratered form, at each time point, for each condition. […]

On to “G^213RRGDLATIHG^223 [TGF-β1 ligand peptide]”, for which the “predicted binding to integrin” value is given as 99.6%.

These data come from paper PMC6889490, “General structural features that regulate integrin affinity revealed by atypical αVβ8” (Nature Communications, 2019).
